{"source": "patent EP0067641A2", "about": "“Amino acids” (BEECHAM GROUP PLC, priority 1981, dated 1982)", "test_system": "rats made hyperlipidaemic by diet", "experiment": "Effects on serum lipids in vivo in rats made hyperlipidaemic by diet", "set-up": "species or system Male Sprague-Dawley rats", "settings": "compound fed at 0.1% of the powdered diet (approximately 100 mg/kg/day), 7 days, (-) lower, (+) higher than control; for Percentage difference from Control Values in High Density lipoprotein (HDL) cholesterol: HDL fraction by heparin-manganous chloride precipitation, four pooled samples per group; for Percentage difference from Control Values in Total Serum Cholesterol / Percentage difference from Control Values in Total Serum Triglyceride: semi-synthetic diet rich in sucrose and cholesterol", "method": "The compounds of the Examples above were tested for their effects on serum lipids in vivo using rats made hyperlipidaemic by diet*.\nMale Sprague-Dawley rats, 80-100 g , were randomised into groups of 8 after 5 - 7 days of feeding on the diet. The compounds were fed to the rats at a concentration of * 0.1% of the powdered diet (ie approximately 100 mg/kg/ day), unless otherwise stated. The control groups were fed only the diet. At the end of the experiment, ie after 7 days, the rats were killed and their individual total serum cholesterol and triglyceride measured in mg/100 ml using a Technicon Autoanalyser. The high density lipoprotein (HDL)-cholesterol fraction, which was obtained from the serum by precipitation with heparin- manganous chloride, was measured on four 'pooled' samples from each group.\n^* A semi-synthetic diet rich in sucrose and cholesterol.", "note": "Marks after values point to notes of the source that are not given here."}
{"smiles": "O=C(O)C(Cc1ccc(Cl)cc1)NCc1ccc(Cl)s1", "note": "(racemic) [Example 1, N-[2-(5-chloro)thienyl]methyl-DL-(4-chlorophenyl) alanine]", "values": [{"measurement": "Percentage difference from Control Values in High Density lipoprotein (HDL) cholesterol", "value": "+31* %"}, {"measurement": "Percentage difference from Control Values in Total Serum Cholesterol", "value": "+16%"}, {"measurement": "Percentage difference from Control Values in Total Serum Triglyceride", "value": "-42* %"}]}
{"smiles": "O=C(O)C(Cc1ccc(Cl)cc1)NCc1ccco1", "note": "(racemic) [Example 2, N-(2-Furyl)methyl-DL-(4-chlorophenyl)-alanine]", "values": [{"measurement": "Percentage difference from Control Values in High Density lipoprotein (HDL) cholesterol", "value": "+84* %"}, {"measurement": "Percentage difference from Control Values in Total Serum Cholesterol", "value": "+61* %"}, {"measurement": "Percentage difference from Control Values in Total Serum Triglyceride", "value": "-47* %"}]}
{"smiles": "O=C(O)C(Cc1ccc(Cl)cc1)NCc1ccccn1", "note": "(racemic) [Example 4, N-(2-pyridyl)methyl-DL-(4-chlorophenyl) alanine]", "values": [{"measurement": "Percentage difference from Control Values in High Density lipoprotein (HDL) cholesterol", "value": "+44* %"}, {"measurement": "Percentage difference from Control Values in Total Serum Cholesterol", "value": "+78* %"}, {"measurement": "Percentage difference from Control Values in Total Serum Triglyceride", "value": "-30* %"}]}
{"smiles": "O=C(O)[C@H](Cc1ccccc1)NCc1cccc2ccccc12", "note": "[Example 3, N-(1-Naphthyl)methyl-L-phenylalanine]", "values": [{"measurement": "Percentage difference from Control Values in High Density lipoprotein (HDL) cholesterol", "value": "+41* %"}, {"measurement": "Percentage difference from Control Values in Total Serum Cholesterol", "value": "+62* %"}, {"measurement": "Percentage difference from Control Values in Total Serum Triglyceride", "value": "-63* %"}]}
{"smiles": "O=C(O)[C@H](Cc1ccccc1)NCc1ccc2ccccc2c1", "note": "[Example 5, N-(2-Naphthyl)methyl-L-phenylalanine]", "values": [{"measurement": "Percentage difference from Control Values in High Density lipoprotein (HDL) cholesterol", "value": "+30* %"}, {"measurement": "Percentage difference from Control Values in Total Serum Cholesterol", "value": "+17* %"}, {"measurement": "Percentage difference from Control Values in Total Serum Triglyceride", "value": "-57* %"}]}
{"smiles": "O=C(O)[C@H](Cc1ccccc1)NCc1ccco1", "note": "[Example 6, N-(2-Furyl)methyl-L-phenylalanine]", "values": [{"measurement": "Percentage difference from Control Values in High Density lipoprotein (HDL) cholesterol", "value": "+26* %"}, {"measurement": "Percentage difference from Control Values in Total Serum Triglyceride", "value": "+39%"}]}
